Test results published in the NIST ThermoML archive (doi:10.1016/j.jct.2014.07.012).

Assay: mn = molality of the nth substance listed, in mol/kg
Details: 100 kPa, Liquid; for speed of sound: Frequency=3 MHz, Sing-around technique in a fixed-path interferometer; for mass density: Vibrating tube method

NC(N)=O [urea] + O
Details | mass density, 288.15 K [kg/m3] | mass density, 293.15 K [kg/m3] | mass density, 298.15 K [kg/m3] | mass density, 303.15 K [kg/m3] | mass density, 308.15 K [kg/m3] | speed of sound, 288.15 K [m/s] | speed of sound, 293.15 K [m/s] | speed of sound, 298.15 K [m/s] | speed of sound, 303.15 K [m/s] | speed of sound, 308.15 K [m/s]
m1 = 0.0504 | 999.922 | 999.019 | 997.847 | 996.442 | 994.816 | 1468.2 | 1483.9 | 1498 | 1510.3 | 1520.9
m1 = 0.0807 | 1000.43 | 999.511 | 998.329 | 996.911 | 995.281 | 1469.1 | 1484.8 | 1498.8 | 1511 | 1521.6
m1 = 0.1107 | 1000.92 | 999.994 | 998.802 | 997.378 | 995.738 | 1470 | 1485.6 | 1499.6 | 1511.8 | 1522.2
m1 = 0.151 | 1001.58 | 1000.64 | 999.436 | 997.998 | 996.351 | 1471.3 | 1486.8 | 1500.6 | 1512.7 | 1523.1
m1 = 0.2005 | 1002.39 | 1001.43 | 1000.21 | 998.757 | 997.097 | 1472.8 | 1488.1 | 1501.9 | 1513.9 | 1524.2
m1 = 0.2512 | 1003.21 | 1002.23 | 1000.99 | 999.529 | 997.855 | 1474.1 | 1489.5 | 1503.1 | 1515 | 1525.3

CCN(CC)C(N)=O [1,1-diethylurea] + O
Details | mass density, 288.15 K [kg/m3] | mass density, 293.15 K [kg/m3] | mass density, 298.15 K [kg/m3] | mass density, 303.15 K [kg/m3] | mass density, 308.15 K [kg/m3] | speed of sound, 288.15 K [m/s] | speed of sound, 293.15 K [m/s] | speed of sound, 298.15 K [m/s] | speed of sound, 303.15 K [m/s] | speed of sound, 308.15 K [m/s]
m1 = 0.0535 | 999.376 | 998.462 | 997.288 | 995.875 | 994.243 | – | – | – | – | –
m1 = 0.0856 | 999.546 | 998.62 | 997.435 | 996.012 | 994.369 | 1474.9 | 1490.4 | 1503.9 | 1515.7 | 1525.8
m1 = 0.1181 | 999.725 | 998.786 | 997.589 | 996.154 | 994.501 | 1478 | 1493.2 | 1506.6 | 1518.1 | 1528
m1 = 0.1603 | 999.959 | 999.002 | 997.788 | 996.338 | 994.672 | 1482 | 1496.8 | 1509.9 | 1521.2 | 1530.8
m1 = 0.2142 | 1000.27 | 999.288 | 998.052 | 996.585 | 994.898 | 1487 | 1501.4 | 1514.1 | 1525 | 1534.3
m1 = 0.2689 | 1000.59 | 999.586 | 998.328 | 996.837 | 995.135 | 1491.9 | 1506 | 1518.2 | 1528.8 | 1537.8
m1 = 0.3254 | 1000.93 | 999.905 | 998.628 | 997.108 | 995.381 | 1496.9 | 1510.3 | 1522.2 | 1532.6 | 1541.3

O [water] + CCCCNC(N)=O
Details | mass density [kg/m3]
308.15 K, m2 = 0 | 994.065

CN(C)C(N)=O [N,N-dimethylurea] + O
Details | mass density, 288.15 K [kg/m3] | mass density, 293.15 K [kg/m3] | mass density, 298.15 K [kg/m3] | mass density, 303.15 K [kg/m3] | mass density, 308.15 K [kg/m3] | speed of sound, 288.15 K [m/s] | speed of sound, 293.15 K [m/s] | speed of sound, 298.15 K [m/s] | speed of sound, 303.15 K [m/s] | speed of sound, 308.15 K [m/s]
m1 = 0.0526 | 999.644 | 998.733 | 997.562 | 996.154 | 994.527 | 1469.9 | 1485.7 | 1499.7 | 1511.8 | 1522.3
m1 = 0.0842 | 999.97 | 999.051 | 997.869 | 996.454 | 994.818 | 1471.8 | 1487.5 | 1501.3 | 1513.4 | 1523.7
m1 = 0.1149 | 1000.29 | 999.36 | 998.171 | 996.746 | 995.103 | 1473.7 | 1489.2 | 1502.9 | 1514.8 | 1525
m1 = 0.1572 | 1000.73 | 999.785 | 998.583 | 997.148 | 995.495 | 1476.3 | 1491.6 | 1505.1 | 1516.8 | 1526.8
m1 = 0.2104 | 1001.28 | 1000.32 | 999.103 | 997.653 | 995.988 | 1479.6 | 1494.6 | 1507.8 | 1519.3 | 1529.1
m1 = 0.2629 | 1001.83 | 1000.85 | 999.617 | 998.153 | 996.474 | 1482.6 | 1497.4 | 1510.4 | 1521.7 | 1531.3
m1 = 0.318 | 1002.4 | 1001.4 | 1000.15 | 998.673 | 996.98 | 1485.9 | 1500.4 | 1513.2 | 1524.2 | 1533.6

CCCNC(N)=O [N-propylurea] + O
Details | mass density, 288.15 K [kg/m3] | mass density, 293.15 K [kg/m3] | mass density, 298.15 K [kg/m3] | mass density, 303.15 K [kg/m3] | mass density, 308.15 K [kg/m3] | speed of sound, 288.15 K [m/s] | speed of sound, 293.15 K [m/s] | speed of sound, 298.15 K [m/s] | speed of sound, 303.15 K [m/s] | speed of sound, 308.15 K [m/s]
m1 = 0.0494 | 999.566 | 998.653 | 997.48 | 996.069 | 994.44 | – | – | – | – | –
m1 = 0.079 | 999.848 | 998.924 | 997.74 | 996.318 | 994.678 | – | – | – | – | –
m1 = 0.0791 | – | – | – | – | – | 1473.3 | 1488.9 | 1502.6 | 1514.5 | 1524.8
m1 = 0.1089 | 1000.13 | 999.198 | 998.003 | 996.573 | 994.925 | 1475.8 | 1491.1 | 1504.7 | 1516.4 | 1526.5
m1 = 0.1484 | 1000.52 | 999.564 | 998.356 | 996.91 | 995.249 | 1479 | 1494.1 | 1507.4 | 1518.9 | 1528.8
m1 = 0.1983 | 1000.99 | 1000.02 | 998.792 | 997.329 | 995.652 | 1483 | 1497.8 | 1510.8 | 1522 | 1531.7
m1 = 0.249 | 1001.49 | 1000.49 | 999.244 | 997.763 | 996.069 | 1487.1 | 1501.6 | 1514.2 | 1525.2 | 1534.6
m1 = 0.3012 | 1001.99 | 1000.97 | 999.704 | 998.202 | 996.489 | 1491.1 | 1505.3 | 1517.7 | 1528.4 | 1537.5

CCCCNC(N)=O [N-butylurea] + O
Details | mass density, 288.15 K [kg/m3] | mass density, 293.15 K [kg/m3] | mass density, 298.15 K [kg/m3] | mass density, 303.15 K [kg/m3] | mass density, 308.15 K [kg/m3] | speed of sound, 288.15 K [m/s] | speed of sound, 293.15 K [m/s] | speed of sound, 298.15 K [m/s] | speed of sound, 303.15 K [m/s] | speed of sound, 308.15 K [m/s]
m1 = 0.0486 | 999.444 | 998.527 | 997.349 | 995.933 | 994.297 | 1471.6 | 1487.2 | 1501.1 | 1513.1 | 1523.5
m1 = 0.0781 | 999.638 | 998.707 | 997.514 | 996.086 | 994.438 | 1474.5 | 1490 | 1503.6 | 1515.4 | 1525.6
m1 = 0.1078 | 999.835 | 998.889 | 997.683 | 996.243 | 994.583 | 1477.5 | 1492.7 | 1506.1 | 1517.7 | 1527.6
m1 = 0.1473 | 1000.1 | 999.134 | 997.909 | 996.448 | 994.774 | 1481.3 | 1496.2 | 1509.3 | 1520.6 | 1530.3
m1 = 0.1974 | 1000.44 | 999.45 | 998.201 | 996.718 | 995.022 | 1486.1 | 1500.6 | 1513.3 | 1524.3 | 1533.7
m1 = 0.2475 | 1000.78 | 999.763 | 998.489 | 996.985 | 995.266 | 1490.8 | 1504.9 | 1517.3 | 1527.9 | 1536.9
m1 = 0.2986 | 1001.14 | 1000.09 | 998.789 | 997.259 | 995.516 | 1495.5 | 1509.2 | 1521.2 | 1531.5 | 1540.2
